For data set [1], the target named is HDAC1 (Homo sapiens, UniProt Q13547). Nature of the data set: HDAC enzyme assay, recombinant HDAC1.
Data set [2] is described as follows: Microsomal stability, rat liver microsomes. The note with it: rat, microsomes, 0.75 h, 5 μM, pH 7.4. On the procedure: (§1) GIBIO pooled human liver microsomes (HLM) (Cat # HMMCPL), mouse liver microsomes (MLM) (Cat # BCMCPL), and rat liver microsomes (RLM) (Cat # RTMCPL) were purchased from Life Technologies. […] Samples are incubated for 30, 45, or 60 min. Reaction is terminated with ice-cold acetonitrile 0.3% formic acid. Samples are subsequently centrifuged at 4° C. for 15 min at 20,000×g. The supernatant is analysed by LC-MS.
(§2) Compound in vitro metabolic stability was assayed using liver microsomes (LM) at 0.5 mg/mL of proteins, incubated for 30 min (mouse, MLM), 45 min (rat, RLM), 30 or 45 min (human, HLM). % of remaining parent compound was measured using LC-MS.
A general note: Liver microsomes are vesicles of endoplasmic reticulum, rich in cytochrome P450 enzymes.

Data set [3] can be described thus: Microsomal stability, human liver microsomes. The conditions noted are these: human, microsomes, 0.75 h, 5 μM, pH 7.4. As for the experimental part:
as §1, §2

Data set [4] has as its system K-562. Nature of the data set: Anti-proliferative assay (cellular IC50), K-562. The note with it: Homo sapiens, K562, 72 h, read-out: In Vitro Cellular IC50 K-562.
For data set [5], the system named is MCF7. Description: Anti-proliferative assay (cellular IC50), MCF7. The conditions noted are these: Homo sapiens, MCF7, 72 h, read-out: In Vitro Cellular IC50 MCF7.
Data set [6] concerns COLO 205. Description: cells. The note with it: Homo sapiens, COLO 205, 72 h, read-out: In Vitro Cellular IC50 COLO 205.
The subject of data set [7] is PC-3. Description: Anti-proliferative assay (cellular IC50), PC-3. The conditions noted are these: Homo sapiens, PC-3, 72 h, read-out: In Vitro Cellular IC50 PC-3.
In data set [8] the test system is MV-4-11. Nature of the data set: cells. The note with it: Homo sapiens, MV4-11, 72 h, read-out: In Vitro Cellular IC50 MV-4-11.
Data set [9] concerns the target HDAC (HeLa nuclear extracts). Nature of the data set: HDAC enzyme assay, HeLa nuclear extracts. The note with it: read-out: In Vitro Enzymatic IC50 HDAC (HeLa).
Data set [10] concerns HepG2. Nature of the data set: Anti-proliferative assay (cellular IC50), HepG2. The note with it: Homo sapiens, HepG2, 72 h, read-out: In Vitro Cellular IC50 HepG2.
The subject of data set [11] is HCT 116. Nature of the data set: cells. The note with it: Homo sapiens, HCT-116, 72 h, read-out: In Vitro Cellular IC50 HCT 116.
The test system of data set [12] is MOLT-4. Nature of the data set: Anti-proliferative assay (cellular IC50), MOLT-4. The conditions noted are these: Homo sapiens, MOLT-4, 72 h, read-out: In Vitro Cellular IC50 MOLT-4.
Data set [13] has as its target T1, PI3Kα (Homo sapiens, UniProt P42336).
T1 construct: purchased Invitrogen, or BPS Bioscience Inc., or SignalChem PV4788 / 40620 / P27-18H
Description: Kinase enzyme assay (ADP-Glo), PI3Kα. Type of data set: biochemical. The note with it: read-out: In Vitro Enzymatic IC50 PI3Kα. (ADP-Glo turns the ADP formed in a reaction into a luminescent signal.)

For data set [14], the target named is T2, HDAC6 (Homo sapiens, UniProt Q9UBN7).
T2 sequence (Q9UBN7 1-1215): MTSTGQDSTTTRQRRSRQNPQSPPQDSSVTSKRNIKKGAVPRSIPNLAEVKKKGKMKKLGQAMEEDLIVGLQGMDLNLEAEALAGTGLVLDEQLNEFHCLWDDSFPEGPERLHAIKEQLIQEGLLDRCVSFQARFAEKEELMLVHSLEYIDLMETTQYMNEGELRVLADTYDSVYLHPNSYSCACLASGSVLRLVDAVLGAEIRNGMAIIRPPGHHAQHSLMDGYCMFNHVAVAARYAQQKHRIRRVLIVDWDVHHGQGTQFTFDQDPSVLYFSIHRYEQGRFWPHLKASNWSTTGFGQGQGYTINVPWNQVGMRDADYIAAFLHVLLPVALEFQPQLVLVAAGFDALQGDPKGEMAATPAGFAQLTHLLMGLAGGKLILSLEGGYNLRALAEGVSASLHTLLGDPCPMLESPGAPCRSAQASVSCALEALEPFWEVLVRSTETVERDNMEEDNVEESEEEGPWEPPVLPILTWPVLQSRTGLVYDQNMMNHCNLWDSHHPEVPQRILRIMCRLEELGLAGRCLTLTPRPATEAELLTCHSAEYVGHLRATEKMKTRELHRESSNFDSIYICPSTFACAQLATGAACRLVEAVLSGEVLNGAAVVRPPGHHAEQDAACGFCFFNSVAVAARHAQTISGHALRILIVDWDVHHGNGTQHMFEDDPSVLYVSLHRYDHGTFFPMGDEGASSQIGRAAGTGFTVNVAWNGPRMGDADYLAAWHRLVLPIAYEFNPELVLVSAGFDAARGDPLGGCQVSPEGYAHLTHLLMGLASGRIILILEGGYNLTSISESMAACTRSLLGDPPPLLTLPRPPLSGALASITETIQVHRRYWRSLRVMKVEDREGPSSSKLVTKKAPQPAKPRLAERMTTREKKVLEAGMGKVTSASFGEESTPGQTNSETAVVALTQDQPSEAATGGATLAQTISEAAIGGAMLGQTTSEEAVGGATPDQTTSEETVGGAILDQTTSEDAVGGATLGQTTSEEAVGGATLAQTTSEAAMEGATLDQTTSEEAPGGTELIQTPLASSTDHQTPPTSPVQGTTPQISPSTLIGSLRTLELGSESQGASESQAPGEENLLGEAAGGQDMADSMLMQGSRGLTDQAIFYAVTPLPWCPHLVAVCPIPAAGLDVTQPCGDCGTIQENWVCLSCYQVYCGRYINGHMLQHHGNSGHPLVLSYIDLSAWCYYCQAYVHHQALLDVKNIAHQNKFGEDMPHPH
Description: HDAC enzyme assay, recombinant HDAC6.

The results in this text go back to patent publication US9957270B2, “Fused pyrimidine-based hydroxamate derivatives” (Agency for Science, Technology and Research, priority 2014, dated 2018).

Sequence of HDAC1 (Q13547 whole entry): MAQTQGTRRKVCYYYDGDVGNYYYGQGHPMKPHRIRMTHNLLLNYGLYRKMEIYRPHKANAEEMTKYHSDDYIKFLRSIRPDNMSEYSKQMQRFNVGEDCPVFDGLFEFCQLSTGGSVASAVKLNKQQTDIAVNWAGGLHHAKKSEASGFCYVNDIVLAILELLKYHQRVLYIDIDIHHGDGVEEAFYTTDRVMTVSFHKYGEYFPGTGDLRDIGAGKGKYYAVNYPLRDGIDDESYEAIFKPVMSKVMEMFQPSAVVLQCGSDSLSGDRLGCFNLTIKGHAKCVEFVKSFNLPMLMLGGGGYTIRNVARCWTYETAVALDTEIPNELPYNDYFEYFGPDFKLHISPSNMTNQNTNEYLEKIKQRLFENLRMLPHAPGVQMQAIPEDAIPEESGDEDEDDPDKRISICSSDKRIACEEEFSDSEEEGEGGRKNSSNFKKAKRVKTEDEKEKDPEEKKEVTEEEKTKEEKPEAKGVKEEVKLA
T1 sequence (P42336 whole entry): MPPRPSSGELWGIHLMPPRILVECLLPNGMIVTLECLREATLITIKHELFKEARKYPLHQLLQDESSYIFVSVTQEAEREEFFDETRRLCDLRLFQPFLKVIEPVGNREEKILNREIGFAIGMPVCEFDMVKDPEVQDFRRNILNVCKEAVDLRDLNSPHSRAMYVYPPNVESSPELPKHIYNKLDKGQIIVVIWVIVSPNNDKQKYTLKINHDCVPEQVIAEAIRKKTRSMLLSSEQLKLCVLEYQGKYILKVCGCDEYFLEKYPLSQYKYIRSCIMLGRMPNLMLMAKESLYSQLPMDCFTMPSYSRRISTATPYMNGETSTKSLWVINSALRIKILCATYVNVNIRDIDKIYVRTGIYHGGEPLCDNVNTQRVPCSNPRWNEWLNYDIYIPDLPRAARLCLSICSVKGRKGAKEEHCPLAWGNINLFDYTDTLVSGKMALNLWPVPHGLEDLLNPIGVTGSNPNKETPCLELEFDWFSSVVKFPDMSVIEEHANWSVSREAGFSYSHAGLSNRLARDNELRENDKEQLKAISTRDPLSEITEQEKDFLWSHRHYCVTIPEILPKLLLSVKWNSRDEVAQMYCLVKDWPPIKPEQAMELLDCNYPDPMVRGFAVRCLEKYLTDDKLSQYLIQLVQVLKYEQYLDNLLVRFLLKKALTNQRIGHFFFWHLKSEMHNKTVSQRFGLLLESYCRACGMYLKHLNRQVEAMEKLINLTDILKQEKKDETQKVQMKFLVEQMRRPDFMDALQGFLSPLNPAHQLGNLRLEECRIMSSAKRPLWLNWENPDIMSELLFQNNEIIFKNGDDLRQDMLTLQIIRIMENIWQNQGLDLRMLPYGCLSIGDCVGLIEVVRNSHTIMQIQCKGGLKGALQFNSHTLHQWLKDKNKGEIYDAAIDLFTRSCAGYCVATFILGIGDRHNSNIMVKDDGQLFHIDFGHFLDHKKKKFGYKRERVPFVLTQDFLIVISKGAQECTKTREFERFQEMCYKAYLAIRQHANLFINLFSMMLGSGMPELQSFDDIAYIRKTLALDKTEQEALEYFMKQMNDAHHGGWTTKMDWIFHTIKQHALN
T1 sequence (P27986 whole entry partner): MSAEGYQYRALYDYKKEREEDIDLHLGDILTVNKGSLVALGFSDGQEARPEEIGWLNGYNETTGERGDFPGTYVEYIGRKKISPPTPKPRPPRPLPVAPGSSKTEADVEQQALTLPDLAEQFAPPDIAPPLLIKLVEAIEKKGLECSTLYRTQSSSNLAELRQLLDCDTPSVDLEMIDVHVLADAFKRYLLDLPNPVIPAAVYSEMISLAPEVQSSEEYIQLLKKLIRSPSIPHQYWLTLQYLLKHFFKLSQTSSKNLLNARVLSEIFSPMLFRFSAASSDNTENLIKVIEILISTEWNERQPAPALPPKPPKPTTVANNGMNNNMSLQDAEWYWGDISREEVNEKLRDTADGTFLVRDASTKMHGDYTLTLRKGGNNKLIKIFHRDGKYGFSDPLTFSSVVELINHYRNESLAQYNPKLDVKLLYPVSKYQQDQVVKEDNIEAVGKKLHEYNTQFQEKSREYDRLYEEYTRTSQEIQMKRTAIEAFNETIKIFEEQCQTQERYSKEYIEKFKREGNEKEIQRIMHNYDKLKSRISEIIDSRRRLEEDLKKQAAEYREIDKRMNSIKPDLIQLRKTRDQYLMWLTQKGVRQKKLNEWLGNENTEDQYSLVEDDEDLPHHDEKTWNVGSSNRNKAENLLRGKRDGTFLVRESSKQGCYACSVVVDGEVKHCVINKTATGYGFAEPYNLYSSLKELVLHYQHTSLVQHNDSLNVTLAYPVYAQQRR

With `CC(C)n1cnc2c(-c3cccc(NC(=O)CCCCCCC(=O)NO)c3)nc(N3CCOCC3)nc21` [compound 4], the half-inhibitory concentration (IC50) in [1] was in the range of 10 to 100 nM; in [4], 500 to 2000 nM; in data set [5], 500 to 2000 nM. In [2], the “Microsomal Stability RLM, % of remaining parent compound” value worked out at 42%. The “Microsomal Stability HLM, % of remaining parent compound” value in data set [3] is recorded as 36%.
As to `CC(C)n1cnc2c(-c3ccc(F)c(OCCCC(=O)NO)c3)nc(N3CCOCC3)nc21` [compound 62, 4-(2-fluoro-5-(9-isopropyl-2-morpholino-9H-purin-6-yl)phenoxy)-N-hydroxybutanamide], the IC50 in data set [6] was 2000 to 10000 nM; in data set [7], 2000 to 10000 nM; in [8] it was < 500 nM; in data set [9] it was 10 to 100 nM; in data set [5], 500 to 2000 nM; in data set [10], 500 to 2000 nM.
On to `CC(C)n1ccc2c(-c3cccc(OCCCC(=O)NO)c3)nc(N3CCCC3)nc21` [compound 75, N-hydroxy-4-(3-(7-isopropyl-2-(pyrrolidin-1-yl)-7H-pyrrolo[2,3-d]pyrimidin-4-yl)phenoxy)butanamide], for which the IC50 is 2000 to 10000 nM in data set [7]; < 500 nM in data set [8]; 500 to 2000 nM in data set [11]; 10 to 100 nM in data set [9]; 500 to 2000 nM in data set [5]; 2000 to 10000 nM in data set [10].
For `CC(C)n1ccc2c(-c3cccc(OCCCC(=O)NO)c3)nc(N3CCOCC3)nc21` [compound 76, N-hydroxy-4-(3-(7-isopropyl-2-morpholino-7H-pyrrolo[2,3-d]pyrimidin-4-yl)phenoxy)butanamide], the 50% inhibitory concentration (IC50) is 10 to 100 nM in data set [1]; < 500 nM in [12]; 500 to 2000 nM in [7]; 500 to 2000 nM in data set [4]; < 500 nM in data set [8]; < 500 nM in [11]. Further, the concentration for half-maximal inhibition (IC50) was 10 to 100 nM in [9], 500 to 2000 nM in data set [5] and 500 to 2000 nM in data set [10].
Take `CC(C)n1cnc2c(N3CCOCC3)nc(-c3ccc(OCCCC(=O)NO)cc3)nc21` [compound 82, N-hydroxy-4-(4-(9-isopropyl-6-morpholino-9H-purin-2-yl)phenoxy)butanamide]: the 50% inhibitory concentration (IC50) in [6] is > 10000 nM; in data set [7], > 10000 nM; in data set [8] it was 500 to 2000 nM; in data set [9], 10 to 100 nM; in [5] it was 2000 to 10000 nM. The “Microsomal Stability RLM, % of remaining parent compound” value in data set [2] was found to be 64%. Moreover, the “Microsomal Stability HLM, % of remaining parent compound” value in data set [3] is on record as 83%.
For `CCn1c(CNCCCCCC(=O)NO)nc2c(N3CCOCC3)nc(-c3cnc(N)nc3)nc21` [compound 87, 6-(((2-(2-aminopyrimidin-5-yl)-9-ethyl-6-morpholino-9H-purin-8-yl)methyl)amino)-N-hydroxyhexanamide], the IC50 is 10 to 100 nM in data set [13]; 100 to 1000 nM in [1]; 2000 to 10000 nM in [12]; > 10000 nM in data set [6]; > 10000 nM in data set [4]; 100 to 1000 nM in data set [9]. Also, the IC50 in [14] lay within 100 to 1000 nM.
Take `CCn1c(CN(C)Cc2ccc(/C=C/C(=O)NO)cc2)nc2c(N3CCOCC3)nc(-c3ccc(C(N)=O)cc3)nc21` [compound 90, (E)-4-(9-ethyl-8-(((4-(3-(hydroxyamino)-3-oxoprop-1-en-1-yl)benzyl)(methyl)amino)methyl)-6-morpholino-9H-purin-2-yl)benzamide]: the half-inhibitory concentration (IC50) fell in the range of 100 to 1000 nM in data set [13]; 100 to 1000 nM in [1]; 2000 to 10000 nM in [12]; 2000 to 10000 nM in data set [6]; 2000 to 10000 nM in data set [4]; 100 to 1000 nM in data set [9].
Regarding `CCn1c(CN(C)Cc2ccc(/C=C/C(=O)NO)cc2)nc2c(N3CCOCC3)nc(-c3cccc(C(N)=O)c3)nc21` [compound 91, (E)-3-(9-ethyl-8-(((4-(3-(hydroxyamino)-3-oxoprop-1-en-1-yl)benzyl)(methyl)amino)methyl)-6-morpholino-9H-purin-2-yl)benzamide], the IC50 in data set [13] is 100 to 1000 nM; in data set [1], 100 to 1000 nM; in [12] it was 2000 to 10000 nM; in data set [6] it was 2000 to 10000 nM; in data set [4], 2000 to 10000 nM; in [9], 100 to 1000 nM.
`CCn1c(CN(C)Cc2ccc(/C=C/C(=O)NO)cc2)nc2c(N3CCOCC3)nc(-c3cccc(NC(C)=O)c3)nc21` [compound 92, (E)-3-(4-((((2-(3-acetamidophenyl)-9-ethyl-6-morpholino-9H-purin-8-yl)methyl)(methyl)amino)methyl)phenyl)-N-hydroxyacrylamide]: the IC50 in data set [13] is 100 to 1000 nM; in data set [1], 100 to 1000 nM; in [12] it was 2000 to 10000 nM; in data set [6], 2000 to 10000 nM; in data set [4], 2000 to 10000 nM; in [9], 100 to 1000 nM. For the same compound, the IC50 in [14] is 100 to 1000 nM.
As to `CCn1c(CN(C)Cc2ccc(C(=O)NO)cc2)nc2c(N3CCOCC3)nc(-c3ccc(OC)nc3)nc21` [compound 96, 4-((((9-ethyl-2-(6-methoxypyridin-3-yl)-6-morpholino-9H-purin-8-yl)methyl)(methyl)amino)methyl)-N-hydroxybenzamide], the concentration for half-maximal inhibition (IC50) in data set [12] lay in the range of 500 to 2000 nM; in [6], 500 to 2000 nM; in data set [7] it was 2000 to 10000 nM; in data set [4], 2000 to 10000 nM; in data set [8], 500 to 2000 nM; in data set [11], 500 to 2000 nM. For the same compound, the IC50 is 100 to 1000 nM in data set [9], 500 to 2000 nM in [5] and 500 to 2000 nM in data set [10].
In the case of `CCn1c(CN(C)CCCCCC(=O)NO)nc2c(N3CCOCC3)nc(-c3cccc(CO)c3)nc21` [compound 97], the IC50 lay in the range of 10 to 100 nM in data set [13]; 10 to 100 nM in data set [1]; 2000 to 10000 nM in data set [7]; 500 to 2000 nM in [8]; 100 to 1000 nM in data set [9]; 2000 to 10000 nM in data set [5]. Moreover, the 50% inhibitory concentration (IC50) is 100 to 1000 nM in data set [14] and 2000 to 10000 nM in [10].
Turning to `CCC(CC)n1cnc2c(-c3cccc(OCCCC(=O)NO)c3)nc(N3CCOCC3)nc21` [compound 101, N-hydroxy-4-(3-(2-morpholino-9-(pentan-3-yl)-9H-purin-6-yl)phenoxy)butanamide], the half-inhibitory concentration (IC50) in data set [12] was < 500 nM; in data set [8], < 500 nM; in data set [11], 500 to 2000 nM; in data set [9], 10 to 100 nM; in [5], < 500 nM; in data set [10], 500 to 2000 nM.

In general, IC50 refers to the concentration that gives 50% inhibition.
